Test results from patent publication US7632972B2, “Compounds and methods for treatment of cancer and modulation of programmed cell death for melanoma and other cancer cells” (The Board of Trustees of the University of Illionis, priority 2003, dated 2009).

Experiments:
Assay type in all cases: cell-based, human
K-562 = experiment: NCI 60 cell line screen (SRB), Leukemia
Excerpt: (§1) The operation of this screen utilizes 60 different human tumor cell lines, representing leukemia, melanoma and cancers of the lung, colon, brain, ovary, breast, prostate, and kidney. The aim is to prioritize for further evaluation, synthetic compounds or natural product samples showing selective growth inhibition or cell killing of particular tumor cell lines. This screen is unique in that the complexity of a 60 cell line dose response produced by a given compound results in a biological response pattern which can be utilized in pattern recognition algorithms. Using these algorithms, it is possible to assign a putative mechanism of action to a test compound, or to determine that the response pattern is unique and not similar to that of any of the standard prototype compounds included in the NCl database (see DTP Overview tab). In addition, following characterization of various cellular molecular targets in the 60 cell lines, it may be possible to select compounds most likely to interact with a specific molecular target.
(§2) The human tumor cell lines of the cancer screening panel are grown in RPMI 1640 medium containing 5% fetal bovine serum and 2 mM L-glutamine. For a typical screening experiment, cells are inoculated into 96 well microtiter plates in 100 μL at plating densities ranging from 5,000 to 40,000 cells/well depending on the doubling time of individual cell lines. After cell inoculation, the microtiter plates are incubated at 37° C., 5% CO2, 95% air and 100% relative humidity for 24 h prior to addition of experimental drugs.
(§3) After 24 h, two plates of each cell line are fixed in situ with TCA, to represent a measurement of the cell population for each cell line at the time of drug addition (Tz). Experimental drugs are solubilized in dimethyl sulfoxide at 400-fold the desired final maximum test concentration and stored frozen prior to use. At the time of drug addition, an aliquot of frozen concentrate is thawed and diluted to twice the desired final maximum test concentration with complete medium containing 50 μg/ml gentamicin. Additional four, 10-fold or ½ log serial dilutions are made to provide a total of five drug concentrations plus control. Aliquots of 100 μl of these different drug dilutions are added to the appropriate microtiter wells already containing 100 μl of medium, resulting in the required final drug concentrations.
(§4) Following drug addition, the plates are incubated for an additional 48 h at 37° C., 5% CO2, 95% air, and 100% relative humidity. For adherent cells, the assay is terminated by the addition of cold TCA. Cells are fixed in situ by the gentle addition of 50 μl of cold 50% (w/v) TCA (final concentration, 10% TCA) and incubated for 60 minutes at 4° C. The supernatant is discarded, and the plates are washed five times with tap water and air dried. Sulforhodamine B (SRB) solution (100 μl) at 0.4% (w/v) in 1% acetic acid is added to each well, and plates are incubated for 10 minutes at room temperature. After staining, unbound dye is removed by washing five times with 1% acetic acid and the plates are air dried. Bound stain is subsequently solubilized with 10 mM trizma base, and the absorbance is read on an automated plate reader at a wavelength of 515 nm. For suspension cells, the methodology is the same except that the assay is terminated by fixing settled cells at the bottom of the wells by gently adding 50 μl of 80% TCA (final concentration, 16% TCA). Using the seven absorbance measurements [time zero, (Tz), control growth, (C), and test growth in the presence of drug at the five concentration levels (Ti)], the percentage growth is calculated at each of the drug concentrations levels. Percentage growth inhibition is calculated as: [(Ti−Tz)/(C−Tz)]×100 for concentrations for which Ti>/=Tz [(Ti−Tz)/Tz]×100 for concentrations for which Ti<Tz.
(§5) Three dose response parameters are calculated for each experimental agent. […]

CCRF-CEM = experiment: NCI 60 cell line screen (SRB), Leukemia
Excerpt: as §1, §2, §3, §4, §5

RPMI-8226 = experiment: NCI 60 cell line screen (SRB), Leukemia
Excerpt: as §1, §2, §3, §4, §5

MOLT-4 = experiment: NCI 60 cell line screen (SRB), Leukemia
Excerpt: as §1, §2, §3, §4, §5

ACHN = experiment: NCI 60 cell line screen (SRB), Renal Cancer
Excerpt: as §1, §2, §3, §4, §5

CAKI-1 = experiment: NCI 60 cell line screen (SRB), Renal Cancer
Excerpt: as §1, §2, §3, §4, §5

TK-10 = experiment: NCI 60 cell line screen (SRB), Renal Cancer
Excerpt: as §1, §2, §3, §4, §5

UO-31 = experiment: NCI 60 cell line screen (SRB), Renal Cancer
Excerpt: as §1, §2, §3, §4, §5

SN12C = experiment: NCI 60 cell line screen (SRB), Renal Cancer
Excerpt: as §1, §2, §3, §4, §5

[1] = read-out: LC50 (the source's name)

COc1cccc(CCNC(=O)CC(c2ccccc2)(c2ccccc2)c2ccccc2)c1 [Compound Z3]
GI50 (K-562; K-562): 6.03 µM | TGI (K-562; K-562): >1.00E−04 | Percent Growth (K-562; K-562, Log10 Concentration −4.0): 32% | Percent Growth (K-562; K-562, Log10 Concentration −5.0): 36% | Percent Growth (K-562; K-562, Log10 Concentration −6.0): 100% | Percent Growth (K-562; K-562, Log10 Concentration −7.0): 100% | Percent Growth (K-562; K-562, Log10 Concentration −8.0): 102% | CC50 (K-562; K-562, read-out: LC50 (the source's name)): > 100 µM | GI50 (CCRF-CEM): 8.16 µM | TGI (CCRF-CEM): >1.00E−04 | Percent Growth (CCRF-CEM; Log10 Concentration −4.0): 34% | Percent Growth (CCRF-CEM; Log10 Concentration −5.0): 48% | Percent Growth (CCRF-CEM; Log10 Concentration −6.0): 74% | Percent Growth (CCRF-CEM; Log10 Concentration −7.0): 94% | Percent Growth (CCRF-CEM; Log10 Concentration −8.0): 62% | CC50 (CCRF-CEM; [1]): > 100 µM | GI50 (RPMI-8226; RPMI-8226): 4.98 µM | TGI (RPMI-8226; RPMI-8226): >1.00E−04 | Percent Growth (RPMI-8226; RPMI-8226, Log10 Concentration −4.0): 24% | Percent Growth (RPMI-8226; RPMI-8226, Log10 Concentration −5.0): 29% | Percent Growth (RPMI-8226; RPMI-8226, Log10 Concentration −6.0): 98% | Percent Growth (RPMI-8226; RPMI-8226, Log10 Concentration −7.0): 100% | Percent Growth (RPMI-8226; RPMI-8226, Log10 Concentration −8.0): 92% | CC50 (RPMI-8226; RPMI-8226, read-out: LC50 (the source's name)): > 100 µM | GI50 (MOLT-4; MOLT-4): 6.01 µM | TGI (MOLT-4; MOLT-4): >1.00E−04 | Percent Growth (MOLT-4; MOLT-4, Log10 Concentration −4.0): 33% | Percent Growth (MOLT-4; MOLT-4, Log10 Concentration −5.0): 34% | Percent Growth (MOLT-4; MOLT-4, Log10 Concentration −6.0): 107% | Percent Growth (MOLT-4; MOLT-4, Log10 Concentration −7.0): 123% | Percent Growth (MOLT-4; MOLT-4, Log10 Concentration −8.0): 116% | CC50 (MOLT-4; MOLT-4, read-out: LC50 (the source's name)): > 100 µM | GI50 (ACHN): 7.84 µM | TGI (ACHN): 9.48E−05 | Percent Growth (ACHN; Log10 Concentration −4.0): −1% | Percent Growth (ACHN; Log10 Concentration −5.0): 45% | Percent Growth (ACHN; Log10 Concentration −6.0): 94% | Percent Growth (ACHN; Log10 Concentration −7.0): 112% | Percent Growth (ACHN; Log10 Concentration −8.0): 102% | CC50 (ACHN; [1]): > 100 µM | GI50 (CAKI-1; CAKI-1): 3.16 µM | TGI (CAKI-1; CAKI-1): 5.09E−05 | Percent Growth (CAKI-1; CAKI-1, Log10 Concentration −4.0): −9% | Percent Growth (CAKI-1; CAKI-1, Log10 Concentration −5.0): 21% | Percent Growth (CAKI-1; CAKI-1, Log10 Concentration −6.0): 79% | Percent Growth (CAKI-1; CAKI-1, Log10 Concentration −7.0): 103% | Percent Growth (CAKI-1; CAKI-1, Log10 Concentration −8.0): 97% | CC50 (CAKI-1; CAKI-1, read-out: LC50 (the source's name)): > 100 µM | GI50 (TK-10; TK-10): 21.9 µM | TGI (TK-10; TK-10): 8.22E−05 | Percent Growth (TK-10; TK-10, Log10 Concentration −4.0): −7% | Percent Growth (TK-10; TK-10, Log10 Concentration −5.0): 80% | Percent Growth (TK-10; TK-10, Log10 Concentration −6.0): 133% | Percent Growth (TK-10; TK-10, Log10 Concentration −7.0): 128% | Percent Growth (TK-10; TK-10, Log10 Concentration −8.0): 117% | CC50 (TK-10; TK-10, read-out: LC50 (the source's name)): > 100 µM | GI50 (UO-31; UO-31): 4.75 µM | TGI (UO-31; UO-31): >1.00E−04 | Percent Growth (UO-31; UO-31, Log10 Concentration −4.0): 20% | Percent Growth (UO-31; UO-31, Log10 Concentration −5.0): 33% | Percent Growth (UO-31; UO-31, Log10 Concentration −6.0): 85% | Percent Growth (UO-31; UO-31, Log10 Concentration −7.0): 98% | Percent Growth (UO-31; UO-31, Log10 Concentration −8.0): 86% | CC50 (UO-31; UO-31, read-out: LC50 (the source's name)): > 100 µM | Percent Growth (SN12C; Log10 Concentration −4.0): 217% | Percent Growth (SN12C; Log10 Concentration −5.0): −14% | Percent Growth (SN12C; Log10 Concentration −6.0): 51% | Percent Growth (SN12C; Log10 Concentration −7.0): 84% | Percent Growth (SN12C; Log10 Concentration −8.0): 87% | CC50 (SN12C; [1]): > 100 µM
